From US20240300932A1, “N-PHENYLIMINE DERIVATIVE AND PREPARATION METHOD AND USE THEREOF” (Guizhou University, priority 2023, published 2024)

Experiments:
Trifoliumre pensL. = assay: Post-emergence herbicidal activity test (stem and leaf spray, pot culture); type: in vivo; details: 3 weeks after spraying
How it was run: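 Pot-grown weeds in loam (pH 7), greenhouse at 20–30 °C, sprayed once post-emergence at the 2–3-leaf stage. Compound in acetone with Tween 80 plus methyl oleate oil (1.5 L/ha), applied at 10, 5 and 2.5 g/mu by spray tower. Effect scored 3 weeks after spraying, averaged over three repeats.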

Abutilon theophrasti = assay: as above; type: in vivo; details: 3 weeks after spraying
How it was run: (§1)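 Seeds soaked 6 h at 25 °C, germinated at 28 °C, sown in loam pots and thinned to 10 plants/pot. At 2–3 leaves, plants received a single spray-tower application of 10, 5 or 2.5 g/mu. Fresh-weight control was graded 0–5 after 3 weeks.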

Echinochloa crusgalli = assay: as above; type: in vivo; details: 3 weeks after spraying
How it was run: as §1

Setaria viridis = assay: as above; type: in vivo; details: 3 weeks after spraying
How it was run: as §1

Amaranthus retroflexus = assay: as above; type: in vivo; details: 3 weeks after spraying
How it was run: as §1

Portulaca oleracea = assay: as above; type: in vivo; details: 3 weeks after spraying
How it was run: as §1

Row | melting point [°C] | SMILES | Post-emergence herbicidal activity, Trifoliumre pensL. (grade) (Trifoliumre pensL.; dosage 2.5 g/mu) | Post-emergence herbicidal activity, Trifoliumre pensL. (grade) (Trifoliumre pensL.; dosage 5 g/mu) | Post-emergence herbicidal activity, Trifoliumre pensL. (grade) (Trifoliumre pensL.; dosage 10 g/mu) | Post-emergence herbicidal activity, A. theophrasti (grade) (Abutilon theophrasti; dosage 2.5 g/mu) | Post-emergence herbicidal activity, A. theophrasti (grade) (Abutilon theophrasti; dosage 5 g/mu) | Post-emergence herbicidal activity, A. theophrasti (grade) (Abutilon theophrasti; dosage 10 g/mu) | Post-emergence herbicidal activity, E. crusgalli (grade) (Echinochloa crusgalli; dosage 2.5 g/mu) | Post-emergence herbicidal activity, E. crusgalli (grade) (Echinochloa crusgalli; dosage 5 g/mu) | Post-emergence herbicidal activity, E. crusgalli (grade) (Echinochloa crusgalli; dosage 10 g/mu) | Post-emergence herbicidal activity, S. viridis (grade) (Setaria viridis; dosage 2.5 g/mu) | Post-emergence herbicidal activity, S. viridis (grade) (Setaria viridis; dosage 5 g/mu) | Post-emergence herbicidal activity, S. viridis (grade) (Setaria viridis; dosage 10 g/mu) | Post-emergence herbicidal activity, A. retroflexus (grade) (Amaranthus retroflexus; dosage 2.5 g/mu) | Post-emergence herbicidal activity, A. retroflexus (grade) (Amaranthus retroflexus; dosage 5 g/mu) | Post-emergence herbicidal activity, A. retroflexus (grade) (Amaranthus retroflexus; dosage 10 g/mu) | Post-emergence herbicidal activity, P. oleracea (grade) (Portulaca oleracea; dosage 2.5 g/mu) | Post-emergence herbicidal activity, P. oleracea (grade) (Portulaca oleracea; dosage 5 g/mu) | Post-emergence herbicidal activity, P. oleracea (grade) (Portulaca oleracea; dosage 10 g/mu)
1 | 101 to 105 | Cc1ccc(Br)cc1-c1noc(COc2cc(N3C(=O)C4=C(CCCC4)C3=O)c(F)cc2Cl)n1 [Compound A1, 2-(5-((3-(5-bromo-2-tolyl)-1,2,4-oxadiazole-5-yl)methoxy)-4-chloro-2-fluorophenyl)-4,5,6,7-tetrahydro-1H-isoindole-1,3(2H)-dione] | 4 (Grade 4: the growth control rate is greater than or equal to 60% and less than 85%) | 5 (Grade 5: the growth control rate is greater than or equal to 85%) | 5 (Grade 5: the growth control rate is greater than or equal to 85%) | 5 (Grade 5: the growth control rate is greater than or equal to 85%) | 5 (Grade 5: the growth control rate is greater than or equal to 85%) | 5 (Grade 5: the growth control rate is greater than or equal to 85%) | 1 (Grade 1: the growth control rate is greater than or equal to 5% and less than 20%) | 2 (Grade 2: the growth control rate is greater than or equal to 20% and less than 40%) | 3 (Grade 3: the growth control rate is greater than or equal to 40% and less than 60%) | 2 (Grade 2: the growth control rate is greater than or equal to 20% and less than 40%) | 3 (Grade 3: the growth control rate is greater than or equal to 40% and less than 60%) | 4 (Grade 4: the growth control rate is greater than or equal to 60% and less than 85%) | 5 (Grade 5: the growth control rate is greater than or equal to 85%) | 5 (Grade 5: the growth control rate is greater than or equal to 85%) | 5 (Grade 5: the growth control rate is greater than or equal to 85%) | 4 (Grade 4: the growth control rate is greater than or equal to 60% and less than 85%) | 5 (Grade 5: the growth control rate is greater than or equal to 85%) | 5 (Grade 5: the growth control rate is greater than or equal to 85%)
2 | – | O=C(COc1cc(N2C(=O)C3=C(CCCC3)C2=O)c(F)cc1Cl)c1cccc(F)c1 [Compound C7, 2-(4-chloro-2-fluoro-5-(2-oxo-2-(3-fluorophenyl)ethoxy)phenyl)-4,5,6,7-tetrahydro-1H-isoindole-1,3(2H)-dione] | 5 (Grade 5: the growth control rate is greater than or equal to 85%) | 5 (Grade 5: the growth control rate is greater than or equal to 85%) | 5 (Grade 5: the growth control rate is greater than or equal to 85%) | 5 (Grade 5: the growth control rate is greater than or equal to 85%) | 5 (Grade 5: the growth control rate is greater than or equal to 85%) | 5 (Grade 5: the growth control rate is greater than or equal to 85%) | 1 (Grade 1: the growth control rate is greater than or equal to 5% and less than 20%) | 2 (Grade 2: the growth control rate is greater than or equal to 20% and less than 40%) | 3 (Grade 3: the growth control rate is greater than or equal to 40% and less than 60%) | 2 (Grade 2: the growth control rate is greater than or equal to 20% and less than 40%) | 3 (Grade 3: the growth control rate is greater than or equal to 40% and less than 60%) | 4 (Grade 4: the growth control rate is greater than or equal to 60% and less than 85%) | 5 (Grade 5: the growth control rate is greater than or equal to 85%) | 5 (Grade 5: the growth control rate is greater than or equal to 85%) | 5 (Grade 5: the growth control rate is greater than or equal to 85%) | 5 (Grade 5: the growth control rate is greater than or equal to 85%) | 5 (Grade 5: the growth control rate is greater than or equal to 85%) | 5 (Grade 5: the growth control rate is greater than or equal to 85%)
3 | – | O=C(CCl)Nc1cc(N2C(=O)C3=C(CCCC3)C2=O)c(F)cc1Cl [Compound D2, 2-chloro-N-(2-chloro-5-(1,3-dioxo-1,3,4,5,6,7-hexahydro-2H-isoindole-2-yl)-4-fluorophenyl)acetamide] | – | – | 5 (Grade 5: the growth control rate is greater than or equal to 85%) | – | – | 5 (Grade 5: the growth control rate is greater than or equal to 85%) | – | – | 3 (Grade 3: the growth control rate is greater than or equal to 40% and less than 60%) | – | – | 3 (Grade 3: the growth control rate is greater than or equal to 40% and less than 60%) | – | – | 5 (Grade 5: the growth control rate is greater than or equal to 85%) | – | – | 5 (Grade 5: the growth control rate is greater than or equal to 85%)
4 | – | CC(Br)C(=O)Nc1cc(N2C(=O)C3=C(CCCC3)C2=O)c(F)cc1Cl (stereo not shown) [Compound D3, 2-bromo-N-(2-chloro-5-(1,3-dioxo-1,3,4,5,6,7-hexahydro-2H-isoindol-2-yl)-4-fluorophenyl)propionamide] | – | – | 5 (Grade 5: the growth control rate is greater than or equal to 85%) | – | – | 5 (Grade 5: the growth control rate is greater than or equal to 85%) | – | – | 3 (Grade 3: the growth control rate is greater than or equal to 40% and less than 60%) | – | – | 3 (Grade 3: the growth control rate is greater than or equal to 40% and less than 60%) | – | – | 5 (Grade 5: the growth control rate is greater than or equal to 85%) | – | – | 5 (Grade 5: the growth control rate is greater than or equal to 85%)
5 | – | CC(C)(CCl)C(=O)Nc1cc(N2C(=O)C3=C(CCCC3)C2=O)c(F)cc1Cl [Compound D4, 3-chloro-N-(2-chloro-5-(1,3-dioxo-1,3,4,5,6,7-hexahydro-2H-isoindole-2-yl)-4-fluorophenyl)-2,2-dimethylpropionamide] | – | – | 5 (Grade 5: the growth control rate is greater than or equal to 85%) | – | – | 5 (Grade 5: the growth control rate is greater than or equal to 85%) | – | – | 3 (Grade 3: the growth control rate is greater than or equal to 40% and less than 60%) | – | – | 3 (Grade 3: the growth control rate is greater than or equal to 40% and less than 60%) | – | – | 5 (Grade 5: the growth control rate is greater than or equal to 85%) | – | – | 5 (Grade 5: the growth control rate is greater than or equal to 85%)
6 | – | CCOC(=O)CC(=O)Nc1cc(N2C(=O)C3=C(CCCC3)C2=O)c(F)cc1Cl [Compound D6, 3-((2-chloro-5-(1,3-dioxo-1,3,4,5,6,7-hexahydro-2H-isoindole-2-yl)-4-fluorophenyl)amino)-ethyl 3-oxopropanoate] | – | – | 5 (Grade 5: the growth control rate is greater than or equal to 85%) | – | – | 5 (Grade 5: the growth control rate is greater than or equal to 85%) | – | – | 3 (Grade 3: the growth control rate is greater than or equal to 40% and less than 60%) | – | – | 3 (Grade 3: the growth control rate is greater than or equal to 40% and less than 60%) | – | – | 5 (Grade 5: the growth control rate is greater than or equal to 85%) | – | – | 5 (Grade 5: the growth control rate is greater than or equal to 85%)
7 | – | CCCCCCCCC(=O)Nc1cc(N2C(=O)C3=C(CCCC3)C2=O)c(F)cc1Cl [Compound D7, N-(2-chloro-5-(1,3-dioxo-1,3,4,5,6,7-hexahydro-2H-isoindole-2-yl)-4-fluorophenyl)nonanamide] | – | – | 5 (Grade 5: the growth control rate is greater than or equal to 85%) | – | – | 5 (Grade 5: the growth control rate is greater than or equal to 85%) | – | – | 3 (Grade 3: the growth control rate is greater than or equal to 40% and less than 60%) | – | – | 4 (Grade 4: the growth control rate is greater than or equal to 60% and less than 85%) | – | – | 5 (Grade 5: the growth control rate is greater than or equal to 85%) | – | – | 5 (Grade 5: the growth control rate is greater than or equal to 85%)
